Test results reported in patent US20190231788A1, “COMPOSITIONS COMPRISING TIMOLOL AND AN ANTI-INFLAMMATORY AGENT” (Almirall, S.A., priority 2016, published 2019).

How the values were obtained:
TPA-induced ear oedema [1] = test: TPA-induced ear oedema model in Balb/c mice, single topical application; format: in vivo
Description: Evaluation of the Anti-Oedema Effect of Ivermectin, Praziquantel and Timolol and Combinations of Timolol with Ivermectin or Praziquantel after a Single Topical Application in the TPA-Induced Ear Oedema Model in Balb/c Mice.
The oedema is induced by means of a single application to the right ear of the mouse of 10 μl of a solution of TPA (phorbol 12-myristate 13-acetate) in acetone at 0.01%. The test compounds are diluted in acetone and applied with TPA. The weight of the mouse ears is measured at T+6 h and the weight of the left ear is subtracted from the one of the right ear.
Treatments: • A. Ivermectin is applied at a concentration of 0.1-0.3-1%, • B. Praziquantel is applied at a concentration at 0.3-1-3% • C. Timolol is applied at a concentration at 0.2-0.5-1%.
For combination studies Ivermectin alone is applied at a concentration of 0.3%, praziquantel alone is applied at 1% and timolol alone is applied at 0.5%. These same strengths are used in the combinations.
Each graph represents the average weight of the ear oedema of four different groups of treated animals. Each group includes 6 animals. Numbers above the bars indicate the percentage inhibition of the corresponding group of treated animals vs the control group.

TPA-induced ear oedema [2] = conditions: topical 0.2%; mice; cited from earlier work
[3] = dose-response study (FIGS. A-C), 0.3% in acetone applied with TPA, ear weight at T+6 h
[4] = dose-response study (FIGS. A-C), 1% in acetone applied with TPA, ear weight at T+6 h

**Q.** With `CC[C@H](C)[C@H]1O[C@]2(CC[C@@H]1C)C[C@@H]1C[C@@H](C/C=C(\C)C(O[C@H]3C[C@H](OC)C(O[C@H]4C[C@H](OC)[C@@H](O)[C@H](C)O4)[C@H](C)O3)[C@@H](C)/C=C/C=C3\CO[C@@H]4[C@H](O)C(C)=C[C@@H](C(=O)O1)[C@]34O)O2` (some centres unmarked) [ivermectin, 22,23-dihydroavermectin B1a] as the compound, how does the “inhibition of ear oedema vs control group” value (TPA-induced ear oedema [1]; combination study FIG. 1, ivermectin alone at 0.3%, T+6 h) read?
**A.** Its value is 37%.

**Q.** What about the “inhibition of ear oedema vs control group” value (TPA-induced ear oedema [1]; dose-response study (FIGS. A-C), 0.1% in acetone applied with TPA, ear weight at T+6 h) of the same compound?
**A.** The value was 20%.

**Q.** What about the “inhibition of ear oedema vs control group” value (TPA-induced ear oedema [1]; [3]) of the same compound?
**A.** Its value is 43%.

**Q.** And the “inhibition of ear oedema vs control group” value (TPA-induced ear oedema [1]; [4])?
**A.** The value was 82%.

**Q.** With `Brc1c(NC2=NCCN2)ccc2nccnc12` [brimonidine] as the compound, how does the “inhibition of TPA-induced ear oedema” value (TPA-induced ear oedema [2]) read?
**A.** Its value is 50%.

**Q.** For `O=C(C1CCCCC1)N1CC(=O)N2CCc3ccccc3C2C1` (racemic) [praziquantel, (RS)-2-(Cyclohexylcarbonyl)-1,2,3,6,7,11b-hexahydro-4H-pyrazino[2,1-a]isoquinolin-4-one], which “inhibition of ear oedema vs control group” value (TPA-induced ear oedema [1]; combination study FIG. 2, praziquantel alone at 1%, T+6 h) is on record?
**A.** Its value is 42%.

**Q.** What about the “inhibition of ear oedema vs control group” value (TPA-induced ear oedema [1]; [3]) of the same compound?
**A.** The value was 15%.

**Q.** What about the “inhibition of ear oedema vs control group” value (TPA-induced ear oedema [1]; [4]) of the same compound?
**A.** Its value is 48%.

**Q.** And the “inhibition of ear oedema vs control group” value (TPA-induced ear oedema [1]; dose-response study (FIGS. A-C), 3% in acetone applied with TPA, ear weight at T+6 h)?
**A.** Its value is 91%.

**Q.** With `CC(C)(C)NC[C@H](O)COc1nsnc1N1CCOCC1` [timolol, (S)-1-(tert-butylamino)-3-[(4-morpholin-4-yl-1,2,5-thiadiazol-3-yl)oxy]propan-2-ol] as the compound, how does the “inhibition of ear oedema vs control group” value (TPA-induced ear oedema [1]; combination study FIG. 1, timolol alone at 0.5%, T+6 h) read?
**A.** The value was 30%.

**Q.** What about the “inhibition of ear oedema vs control group” value (TPA-induced ear oedema [1]; combination study FIG. 2, timolol alone at 0.5%, T+6 h) of the same compound?
**A.** Its value is 16%.

**Q.** What about the “inhibition of ear oedema vs control group” value (TPA-induced ear oedema [1]; dose-response study (FIGS. A-C), 0.2% in acetone applied with TPA, ear weight at T+6 h) of the same compound?
**A.** Its value is 6%.

**Q.** And the “inhibition of ear oedema vs control group” value (TPA-induced ear oedema [1]; dose-response study (FIGS. A-C), 0.5% in acetone applied with TPA, ear weight at T+6 h)?
**A.** Its value is 23%.

**Q.** What about the “inhibition of ear oedema vs control group” value (TPA-induced ear oedema [1]; [4]) of the same compound?
**A.** Its value is 14%.
